Reference: ChEMBL document CHEMBL1909046, “DrugMatrix in vitro pharmacology data”

Columns and labels:
[1] = target: T1, 5-hydroxytryptamine receptor 2C (Homo sapiens, UniProt P28335); test: DRUGMATRIX: Serotonin (5-Hydroxytryptamine) 5-HT2C radioligand binding (ligand: [3H] Mesulergine); assay type: cell membranes, CHO-K1, Membrane; details: cho-k1; Not Active = under 50% inhibition at 10 µM
T1 sequence (P28335 whole entry): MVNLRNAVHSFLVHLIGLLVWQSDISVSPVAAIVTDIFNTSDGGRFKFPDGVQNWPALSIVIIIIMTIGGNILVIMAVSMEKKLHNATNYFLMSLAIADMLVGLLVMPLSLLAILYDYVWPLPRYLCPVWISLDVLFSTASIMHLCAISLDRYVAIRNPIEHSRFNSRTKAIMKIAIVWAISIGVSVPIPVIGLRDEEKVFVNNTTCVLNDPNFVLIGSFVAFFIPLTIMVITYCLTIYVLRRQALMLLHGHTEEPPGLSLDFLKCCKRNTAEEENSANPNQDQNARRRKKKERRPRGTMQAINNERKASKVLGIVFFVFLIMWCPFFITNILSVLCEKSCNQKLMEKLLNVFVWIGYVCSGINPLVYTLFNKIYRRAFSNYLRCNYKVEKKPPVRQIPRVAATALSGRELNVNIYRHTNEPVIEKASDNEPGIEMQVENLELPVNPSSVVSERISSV

[2] = target: Vascular endothelial growth factor receptor 1 (Homo sapiens, UniProt P17948); assay type: cell-based; details: huvec; further: in other assays of this panel Not Active means under 50% inhibition at 10 µM
D(3) dopamine receptor = D(3) dopamine receptor (Homo sapiens, UniProt P35462); test: DRUGMATRIX: Dopamine D3 radioligand binding (ligand: [3H] Spiperone); assay type: cell membranes, CHO, Membrane; details: cho
[3] = DRUGMATRIX: GABAA, Chloride Channel, TBOB radioligand binding (ligand: [3H] TBOB); assay type: cell membranes, Rattus norvegicus, Wistar, Cerebral cortex, Membrane; details: Not Active = under 50% inhibition at 10 µM
[4] = target: T2, 3-hydroxy-3-methylglutaryl-coenzyme A reductase (Homo sapiens, UniProt P04035); parameters: species or system Escherichia coli;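 further: enzyme inhibition assay of HMG-CoA reductase using radiolabeled [14C]HMG-CoA as substrate; in other assays of this panel Not Active means under 50% inhibition at 10 µM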
T2 sequence (P04035 whole entry): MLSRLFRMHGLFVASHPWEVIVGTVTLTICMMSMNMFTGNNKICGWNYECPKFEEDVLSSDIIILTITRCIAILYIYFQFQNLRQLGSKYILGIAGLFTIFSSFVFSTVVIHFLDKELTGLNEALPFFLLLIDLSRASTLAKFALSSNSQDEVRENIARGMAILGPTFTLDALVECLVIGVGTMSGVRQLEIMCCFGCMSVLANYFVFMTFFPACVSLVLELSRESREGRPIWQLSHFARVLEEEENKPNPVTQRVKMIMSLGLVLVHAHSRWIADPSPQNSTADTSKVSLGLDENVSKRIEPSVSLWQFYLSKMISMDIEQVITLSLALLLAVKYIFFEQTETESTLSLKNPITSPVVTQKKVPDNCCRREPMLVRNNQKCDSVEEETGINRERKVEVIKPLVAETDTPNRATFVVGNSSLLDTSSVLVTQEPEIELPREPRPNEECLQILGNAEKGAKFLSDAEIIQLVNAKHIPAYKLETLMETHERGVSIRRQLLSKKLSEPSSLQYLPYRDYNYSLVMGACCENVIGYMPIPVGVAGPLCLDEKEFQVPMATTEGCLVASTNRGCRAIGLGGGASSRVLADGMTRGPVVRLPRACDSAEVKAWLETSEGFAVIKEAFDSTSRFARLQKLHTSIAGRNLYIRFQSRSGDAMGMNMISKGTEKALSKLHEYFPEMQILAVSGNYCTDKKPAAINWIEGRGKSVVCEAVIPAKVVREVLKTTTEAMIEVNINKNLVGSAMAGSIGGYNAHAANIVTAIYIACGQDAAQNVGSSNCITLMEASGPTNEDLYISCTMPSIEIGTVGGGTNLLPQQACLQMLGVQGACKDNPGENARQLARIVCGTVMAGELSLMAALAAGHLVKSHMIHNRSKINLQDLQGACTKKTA

[5] = DRUGMATRIX: Interleukin IL-1 radioligand binding (ligand: [125I] interleukin 1beta); assay type: cell membranes, Membrane; details: nih3t3; Not Active = under 50% inhibition at 10 µM
Melanocortin receptor 5 = Melanocortin receptor 5 (Homo sapiens, UniProt P33032); assay type: cell membranes, HEK293, Membrane; details: hek293; further: in other assays of this panel Not Active means under 50% inhibition at 10 µM
[6] = target: T3, Neuropeptide Y receptor type 2 (Homo sapiens, UniProt P49146); assay type: cell membranes, Membrane; details: kan-ts; further: in other assays of this panel Not Active means under 50% inhibition at 10 µM
T3 sequence (P49146 whole entry): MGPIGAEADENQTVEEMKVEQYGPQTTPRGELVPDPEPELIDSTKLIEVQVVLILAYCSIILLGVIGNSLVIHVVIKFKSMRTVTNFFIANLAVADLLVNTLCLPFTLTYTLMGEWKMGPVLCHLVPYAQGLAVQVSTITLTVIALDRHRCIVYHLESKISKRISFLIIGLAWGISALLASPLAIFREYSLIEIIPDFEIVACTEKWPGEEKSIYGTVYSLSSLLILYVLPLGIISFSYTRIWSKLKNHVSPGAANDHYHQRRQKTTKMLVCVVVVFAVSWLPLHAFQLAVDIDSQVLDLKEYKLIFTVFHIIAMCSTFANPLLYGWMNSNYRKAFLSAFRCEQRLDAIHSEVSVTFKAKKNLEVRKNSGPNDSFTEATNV

[7] = target: Delta-type opioid receptor (Homo sapiens, UniProt P41143); assay type: cell membranes, HEK293, Membrane; details: hek293; further: in other assays of this panel Not Active means under 50% inhibition at 10 µM
Acetylcholinesterase = Acetylcholinesterase (Homo sapiens, UniProt P22303); test: DRUGMATRIX: Acetylcholinesterase enzyme inhibition (substrate: acetylthiocholine); assay type: cell-based, HEK293; details: hek293; Not Active = under 50% inhibition at 10 µM
Adenosine receptor A2a = Adenosine receptor A2a (Homo sapiens, UniProt P29274); test: DRUGMATRIX: Adenosine A2A radioligand binding (ligand: […]); assay type: cell membranes, HEK293, Membrane; details: hek293; Not Active = under 50% inhibition at 10 µM
Cytochrome P450 2A6 = target: T4, Cytochrome P450 2A6 (Homo sapiens, UniProt P11509); details: bti-tn-5b1-4; further: in other assays of this panel Not Active means under 50% inhibition at 10 µM
T4 sequence (P11509 whole entry): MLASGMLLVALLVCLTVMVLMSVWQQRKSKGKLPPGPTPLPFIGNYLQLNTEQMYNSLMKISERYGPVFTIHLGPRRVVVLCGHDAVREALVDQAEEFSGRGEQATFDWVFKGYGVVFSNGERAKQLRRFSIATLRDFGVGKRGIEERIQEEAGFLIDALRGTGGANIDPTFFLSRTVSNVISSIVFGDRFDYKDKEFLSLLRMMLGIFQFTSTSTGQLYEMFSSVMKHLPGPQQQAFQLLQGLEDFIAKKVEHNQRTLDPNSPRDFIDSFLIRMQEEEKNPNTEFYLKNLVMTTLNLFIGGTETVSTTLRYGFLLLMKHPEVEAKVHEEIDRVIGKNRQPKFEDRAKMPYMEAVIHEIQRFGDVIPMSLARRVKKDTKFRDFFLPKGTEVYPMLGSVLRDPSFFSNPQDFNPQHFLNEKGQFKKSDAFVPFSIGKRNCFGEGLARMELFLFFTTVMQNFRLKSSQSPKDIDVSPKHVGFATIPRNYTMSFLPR

D(3) dopamine receptor, sequence (P35462 whole entry): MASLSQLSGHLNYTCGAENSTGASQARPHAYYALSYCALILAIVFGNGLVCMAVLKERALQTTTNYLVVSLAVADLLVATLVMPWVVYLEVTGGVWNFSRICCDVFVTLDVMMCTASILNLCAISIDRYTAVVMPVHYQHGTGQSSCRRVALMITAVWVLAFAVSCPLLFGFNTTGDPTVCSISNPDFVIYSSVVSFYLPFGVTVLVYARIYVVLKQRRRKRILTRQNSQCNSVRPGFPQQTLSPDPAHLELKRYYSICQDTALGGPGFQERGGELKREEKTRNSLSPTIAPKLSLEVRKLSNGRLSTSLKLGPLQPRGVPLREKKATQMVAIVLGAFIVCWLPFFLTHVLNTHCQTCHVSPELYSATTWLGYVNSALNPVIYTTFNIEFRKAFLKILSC
Adenosine receptor A2a, sequence (P29274 whole entry): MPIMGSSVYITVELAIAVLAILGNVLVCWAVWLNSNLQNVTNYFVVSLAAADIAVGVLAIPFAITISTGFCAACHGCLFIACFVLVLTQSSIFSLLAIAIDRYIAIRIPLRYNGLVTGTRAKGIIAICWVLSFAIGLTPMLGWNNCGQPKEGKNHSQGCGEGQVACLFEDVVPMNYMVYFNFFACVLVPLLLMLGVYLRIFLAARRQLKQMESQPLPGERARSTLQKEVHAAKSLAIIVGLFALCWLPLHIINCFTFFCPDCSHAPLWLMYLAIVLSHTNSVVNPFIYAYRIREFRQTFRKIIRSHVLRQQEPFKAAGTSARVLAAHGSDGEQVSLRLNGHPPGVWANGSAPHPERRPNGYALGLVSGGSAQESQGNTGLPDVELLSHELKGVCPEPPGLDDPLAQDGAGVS
Delta-type opioid receptor, sequence (P41143 whole entry): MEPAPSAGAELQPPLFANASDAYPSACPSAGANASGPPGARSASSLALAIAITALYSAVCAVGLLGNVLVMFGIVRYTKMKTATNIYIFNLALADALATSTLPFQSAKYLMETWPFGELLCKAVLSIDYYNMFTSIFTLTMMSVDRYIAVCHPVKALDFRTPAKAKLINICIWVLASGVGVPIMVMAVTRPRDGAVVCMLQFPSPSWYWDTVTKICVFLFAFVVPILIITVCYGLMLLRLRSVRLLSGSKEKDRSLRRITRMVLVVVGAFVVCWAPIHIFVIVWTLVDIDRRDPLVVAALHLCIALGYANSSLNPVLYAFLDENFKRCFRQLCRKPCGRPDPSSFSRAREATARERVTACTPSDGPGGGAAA
Acetylcholinesterase, sequence (P22303 whole entry): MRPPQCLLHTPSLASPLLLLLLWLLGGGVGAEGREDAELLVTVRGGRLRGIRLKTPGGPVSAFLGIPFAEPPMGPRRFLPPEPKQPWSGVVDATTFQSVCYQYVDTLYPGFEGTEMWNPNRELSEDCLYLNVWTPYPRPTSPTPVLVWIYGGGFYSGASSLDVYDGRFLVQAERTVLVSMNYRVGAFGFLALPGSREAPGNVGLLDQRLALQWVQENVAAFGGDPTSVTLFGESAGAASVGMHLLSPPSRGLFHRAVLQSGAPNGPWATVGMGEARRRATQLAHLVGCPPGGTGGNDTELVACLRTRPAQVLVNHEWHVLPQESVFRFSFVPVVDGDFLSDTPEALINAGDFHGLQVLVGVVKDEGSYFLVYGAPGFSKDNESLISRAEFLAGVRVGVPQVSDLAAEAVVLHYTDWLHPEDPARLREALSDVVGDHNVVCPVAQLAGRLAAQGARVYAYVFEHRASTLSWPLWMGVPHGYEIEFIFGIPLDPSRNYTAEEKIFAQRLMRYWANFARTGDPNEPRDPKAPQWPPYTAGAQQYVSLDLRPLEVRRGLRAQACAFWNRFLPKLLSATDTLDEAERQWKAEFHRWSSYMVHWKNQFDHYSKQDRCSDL
Melanocortin receptor 5, sequence (P33032 whole entry): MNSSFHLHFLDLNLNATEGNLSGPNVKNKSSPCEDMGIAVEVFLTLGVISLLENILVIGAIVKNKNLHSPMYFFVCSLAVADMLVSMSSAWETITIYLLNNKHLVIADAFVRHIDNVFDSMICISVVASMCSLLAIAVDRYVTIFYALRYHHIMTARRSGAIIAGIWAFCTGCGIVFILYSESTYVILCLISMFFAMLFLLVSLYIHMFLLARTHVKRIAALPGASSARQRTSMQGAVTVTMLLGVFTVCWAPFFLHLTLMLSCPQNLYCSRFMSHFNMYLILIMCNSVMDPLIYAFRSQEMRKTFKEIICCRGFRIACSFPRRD
Vascular endothelial growth factor receptor 1, sequence (P17948 whole entry): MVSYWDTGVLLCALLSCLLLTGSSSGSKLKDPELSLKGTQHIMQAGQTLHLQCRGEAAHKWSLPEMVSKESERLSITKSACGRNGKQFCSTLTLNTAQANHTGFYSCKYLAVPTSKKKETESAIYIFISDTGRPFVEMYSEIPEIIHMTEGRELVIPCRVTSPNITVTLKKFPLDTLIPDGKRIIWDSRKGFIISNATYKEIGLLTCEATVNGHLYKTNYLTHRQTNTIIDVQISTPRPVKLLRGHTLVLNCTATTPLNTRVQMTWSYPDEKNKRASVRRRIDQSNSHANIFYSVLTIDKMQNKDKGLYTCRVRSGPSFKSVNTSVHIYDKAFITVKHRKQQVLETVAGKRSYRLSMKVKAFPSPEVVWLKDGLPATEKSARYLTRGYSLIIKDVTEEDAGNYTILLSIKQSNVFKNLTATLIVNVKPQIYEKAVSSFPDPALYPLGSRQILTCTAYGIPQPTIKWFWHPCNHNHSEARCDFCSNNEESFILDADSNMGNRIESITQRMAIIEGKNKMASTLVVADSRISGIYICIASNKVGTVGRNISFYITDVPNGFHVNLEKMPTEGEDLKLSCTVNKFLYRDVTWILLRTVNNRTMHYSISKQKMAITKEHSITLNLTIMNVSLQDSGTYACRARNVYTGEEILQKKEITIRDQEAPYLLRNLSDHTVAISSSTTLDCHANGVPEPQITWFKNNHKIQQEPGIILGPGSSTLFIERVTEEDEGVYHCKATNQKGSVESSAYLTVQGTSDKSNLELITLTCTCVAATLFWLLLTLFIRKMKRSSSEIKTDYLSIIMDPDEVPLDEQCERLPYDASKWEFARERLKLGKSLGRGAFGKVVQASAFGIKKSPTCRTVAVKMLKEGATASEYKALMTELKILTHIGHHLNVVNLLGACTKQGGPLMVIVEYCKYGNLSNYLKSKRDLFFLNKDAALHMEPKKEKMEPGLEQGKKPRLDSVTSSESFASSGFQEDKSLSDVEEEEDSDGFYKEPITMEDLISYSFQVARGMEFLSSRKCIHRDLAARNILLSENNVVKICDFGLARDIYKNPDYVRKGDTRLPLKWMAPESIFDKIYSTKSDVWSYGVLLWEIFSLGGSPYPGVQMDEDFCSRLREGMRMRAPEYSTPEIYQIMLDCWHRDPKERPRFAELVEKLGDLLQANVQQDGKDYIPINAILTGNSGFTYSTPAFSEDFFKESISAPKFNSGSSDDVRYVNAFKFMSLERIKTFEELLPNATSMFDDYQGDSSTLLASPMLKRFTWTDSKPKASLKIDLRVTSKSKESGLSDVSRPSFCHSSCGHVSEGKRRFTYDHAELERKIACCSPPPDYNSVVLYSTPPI

Row | Compound | IC50 [1] | IC50 [2] | IC50 (D(3) dopamine receptor) | IC50 [3] | Ki [3] | IC50 [4] | IC50 [5] | Ki [5] | IC50 (Melanocortin receptor 5) | IC50 [6] | IC50 [7] | IC50 (Acetylcholinesterase) | IC50 (Adenosine receptor A2a) | IC50 (Cytochrome P450 2A6) | Ki (Cytochrome P450 2A6) | IC50 ([3]; read-out: IC50) | Ki ([3]; read-out: Ki)
1 | NCCCC[C@H](N[C@@H](CCc1ccccc1)C(=O)O)C(=O)N1CCC[C@H]1C(=O)O [LISINOPRIL ANHYDROUS] | Not Active | Not Active | Not Active | Not Active | Not Active | Not Active | Not Active | Not Active | Not Active | Not Active | Not Active | Not Active | Not Active | Not Active | Not Active | – | –
2 | CN1[C@@H]2CC[C@H]1C[C@@H](OC(=O)c1c[nH]c3ccccc13)C2 [TROPISETRON] | Not Active | Not Active | Not Active | Not Active | Not Active | Not Active | Not Active | Not Active | Not Active | Not Active | Not Active | Not Active | Not Active | Not Active | Not Active | – | –
3 | CC(=O)[C@H]1CC[C@H]2[C@@H]3CCC4=CC(=O)CC[C@]4(C)[C@H]3CC[C@]12C [PROGESTERONE] | Not Active | Not Active | Not Active | – | – | Not Active | Not Active | Not Active | Not Active | Not Active | Not Active | Not Active | Not Active | Not Active | Not Active | 24.9 µM | 22.3 µM
4 | C[C@](N)(Cc1ccc(O)cc1)C(=O)O [METYROSINE] | Not Active | Not Active | Not Active | Not Active | Not Active | Not Active | Not Active | Not Active | Not Active | Not Active | Not Active | Not Active | Not Active | Not Active | Not Active | – | –
5 | CC1(C)[C@H]2CC[C@]1(C)C(=O)C2 [(-)-CAMPHOR] | Not Active | Not Active | Not Active | Not Active | Not Active | Not Active | Not Active | Not Active | Not Active | Not Active | Not Active | Not Active | Not Active | Not Active | Not Active | – | –
6 | C=CC[C@@H]1/C=C(\C)C[C@H](C)C[C@H](OC)[C@H]2O[C@@](O)(C(=O)C(=O)N3CCCC[C@H]3C(=O)O[C@H](/C(C)=C/[C@@H]3CC[C@@H](O)[C@H](OC)C3)[C@H](C)[C@@H](O)CC1=O)[C@H](C)C[C@@H]2OC [TACROLIMUS ANHYDROUS] | Not Active | Not Active | Not Active | Not Active | Not Active | Not Active | Not Active | Not Active | Not Active | Not Active | Not Active | Not Active | Not Active | Not Active | Not Active | – | –
7 | c1ccc2[nH]c(-c3cscn3)nc2c1 [THIABENDAZOLE] | Not Active | Not Active | Not Active | Not Active | Not Active | Not Active | Not Active | Not Active | Not Active | Not Active | Not Active | Not Active | Not Active | Not Active | Not Active | – | –
8 | Cc1cc(NS(=O)(=O)c2ccc(N)cc2)no1 [SULFAMETHOXAZOLE] | Not Active | Not Active | Not Active | Not Active | Not Active | Not Active | Not Active | Not Active | Not Active | Not Active | Not Active | Not Active | Not Active | Not Active | Not Active | – | –
9 | COc1c(C)c2c(c(O)c1C/C=C(\C)CCC(=O)OCCN1CCOCC1)C(=O)OC2 [MYCOPHENOLATE MOFETIL] | Not Active | Not Active | Not Active | Not Active | Not Active | Not Active | Not Active | Not Active | Not Active | Not Active | Not Active | Not Active | Not Active | Not Active | Not Active | – | –
